Source: ChEMBL document CHEMBL3885881, “DrugMatrix”

Organism: Rattus norvegicus
Experiment: DrugMatrix - Regimen: Daily Repeat
Assay type: toxicity, organism-based, Sprague-Dawley
Parameters: regimen Daily Repeat, gender Male, age 6-8 weeks
Details: in vivo, po, route oral GAVAGE, vehicle .5 % CMC; for ABSOLUTE BASOPHIL / ABSOLUTE EOSINOPHIL / ABSOLUTE LYMPHOCYTE / ABSOLUTE MONOCYTE / ABSOLUTE SEGMENTED NEUTROPHIL / BASOPHIL / EOSINOPHIL / ERYTHROCYTE COUNT / HEMATOCRIT / HEMOGLOBIN / LEUKOCYTE COUNT / LYMPHOCYTE / MEAN CORPUSCULAR HEMOGLOBIN / MEAN CORPUSCULAR HEMOGLOBIN CONCENTRATION / MEAN CORPUSCULAR VOLUME / MONOCYTE / NEUTROPHIL / NUCLEATED RED BLOOD CELLS / PLATELET COUNT: tissue Blood; for ALANINE AMINOTRANSFERASE / ALBUMIN / ALKALINE PHOSPHATASE / ASPARTATE AMINOTRANSFERASE / BLOOD UREA NITROGEN / CARBON DIOXIDE / CHLORIDE / CHOLESTEROL / CREATINE PHOSPHOKINASE / CREATININE / GLUCOSE / LACTATE DEHYDROGENASE / LIPASE / PHOSPHORUS / POTASSIUM / SODIUM / TOTAL BILIRUBIN / TOTAL PROTEIN / URIC ACID: tissue Plasma
[1] = 3 mg/kg, 120 h, dose level Low, time 5 day
[2] = 17 mg/kg, 72 h, dose level High, time 3 day
[3] = 17 mg/kg, 120 h, dose level High, time 5 day

## COc1nc(C)nc(Cl)c1N=C1NCCN1 [MOXONIDINE]
[1]
  ABSOLUTE BASOPHIL: 0 CELLS/uL
  ABSOLUTE EOSINOPHIL: 0 CELLS/uL
  ABSOLUTE LYMPHOCYTE: 12936.33 CELLS/uL
  ABSOLUTE MONOCYTE: 47.33 CELLS/uL
  ABSOLUTE SEGMENTED NEUTROPHIL: 1849.67 CELLS/uL
  BASOPHIL: 0%
  EOSINOPHIL: 0%
  ERYTHROCYTE COUNT: 5.72 x10E6/uL
  HEMATOCRIT: 36.07%
  HEMOGLOBIN: 14.37 G/DL
  LEUKOCYTE COUNT: 14.83 x10E3/uL
  LYMPHOCYTE: 87%
  MEAN CORPUSCULAR HEMOGLOBIN: 25.13 pg
  MEAN CORPUSCULAR HEMOGLOBIN CONCENTRATION: 39.8 G/DL
  MEAN CORPUSCULAR VOLUME: 63.1 fL
  MONOCYTE: 0.33%
  NEUTROPHIL: 12.67%
  NUCLEATED RED BLOOD CELLS: 0.33 /100WBC
  PLATELET COUNT: 943.67 x10E3/uL
  ALANINE AMINOTRANSFERASE: 44.67 u/L
  ALBUMIN: 4.13 G/DL
  ALKALINE PHOSPHATASE: 346 u/L
  ASPARTATE AMINOTRANSFERASE: 83.67 u/L
  BLOOD UREA NITROGEN: 17.67 mg/dL
  CARBON DIOXIDE: 29.33 mmol/L
  CHLORIDE: 98 MEQ/L
  CHOLESTEROL: 69.67 mg/dL
  CREATINE PHOSPHOKINASE: 484.67 u/L
  CREATININE: 0.19 mg/dL
  GLUCOSE: 147 mg/dL
  LACTATE DEHYDROGENASE: 166.67 u/L
  LIPASE: 10 u/L
  PHOSPHORUS: 13.4 mg/dL
  POTASSIUM: 6.24 MEQ/L
  SODIUM: 145.27 MEQ/L
  TOTAL BILIRUBIN: 0.2 mg/dL
  TOTAL PROTEIN: 6.03 G/DL
  URIC ACID: 1.57 mg/dL
[2]
  ABSOLUTE BASOPHIL: 0 CELLS/uL
  ABSOLUTE EOSINOPHIL: 110.67 CELLS/uL
  ABSOLUTE LYMPHOCYTE: 13070 CELLS/uL
  ABSOLUTE MONOCYTE: 298.67 CELLS/uL
  ABSOLUTE SEGMENTED NEUTROPHIL: 1454 CELLS/uL
  BASOPHIL: 0%
  EOSINOPHIL: 0.67%
  ERYTHROCYTE COUNT: 6.02 x10E6/uL
  HEMATOCRIT: 36.53%
  HEMOGLOBIN: 14.5 G/DL
  LEUKOCYTE COUNT: 14.93 x10E3/uL
  LYMPHOCYTE: 87.33%
  MEAN CORPUSCULAR HEMOGLOBIN: 24.07 pg
  MEAN CORPUSCULAR HEMOGLOBIN CONCENTRATION: 39.67 G/DL
  MEAN CORPUSCULAR VOLUME: 60.63 fL
  MONOCYTE: 2%
  NEUTROPHIL: 10%
  NUCLEATED RED BLOOD CELLS: 0 /100WBC
  PLATELET COUNT: 1171.33 x10E3/uL
  ALANINE AMINOTRANSFERASE: 46.67 u/L
  ALBUMIN: 3.9 G/DL
  ALKALINE PHOSPHATASE: 274 u/L
  ASPARTATE AMINOTRANSFERASE: 131.67 u/L
  BLOOD UREA NITROGEN: 17.67 mg/dL
  CARBON DIOXIDE: 23.67 mmol/L
  CHLORIDE: 104 MEQ/L
  CHOLESTEROL: 63 mg/dL
  CREATINE PHOSPHOKINASE: 1708.67 u/L
  CREATININE: 0.17 mg/dL
  GLUCOSE: 146 mg/dL
  LACTATE DEHYDROGENASE: 536.33 u/L
  LIPASE: 8.67 u/L
  PHOSPHORUS: 9.2 mg/dL
  POTASSIUM: 5.68 MEQ/L
  SODIUM: 142.1 MEQ/L
  TOTAL BILIRUBIN: 0.17 mg/dL
  TOTAL PROTEIN: 5.43 G/DL
  URIC ACID: 1.53 mg/dL
[3]
  ABSOLUTE BASOPHIL: 0 CELLS/uL
  ABSOLUTE EOSINOPHIL: 74 CELLS/uL
  ABSOLUTE LYMPHOCYTE: 15545.33 CELLS/uL
  ABSOLUTE MONOCYTE: 52.33 CELLS/uL
  ABSOLUTE SEGMENTED NEUTROPHIL: 1961.67 CELLS/uL
  BASOPHIL: 0%
  EOSINOPHIL: 0.33%
  ERYTHROCYTE COUNT: 5.87 x10E6/uL
  HEMATOCRIT: 34.5%
  HEMOGLOBIN: 13.8 G/DL
  LEUKOCYTE COUNT: 17.63 x10E3/uL
  LYMPHOCYTE: 88.67%
  MEAN CORPUSCULAR HEMOGLOBIN: 23.5 pg
  MEAN CORPUSCULAR HEMOGLOBIN CONCENTRATION: 40 G/DL
  MEAN CORPUSCULAR VOLUME: 58.73 fL
  MONOCYTE: 0.33%
  NEUTROPHIL: 10.67%
  NUCLEATED RED BLOOD CELLS: 0.33 /100WBC
  PLATELET COUNT: 1240.33 x10E3/uL
  ALANINE AMINOTRANSFERASE: 48 u/L
  ALBUMIN: 3.97 G/DL
  ALKALINE PHOSPHATASE: 270.33 u/L
  ASPARTATE AMINOTRANSFERASE: 91.33 u/L
  BLOOD UREA NITROGEN: 23 mg/dL
  CARBON DIOXIDE: 25 mmol/L
  CHLORIDE: 104.67 MEQ/L
  CHOLESTEROL: 70.33 mg/dL
  CREATINE PHOSPHOKINASE: 333.33 u/L
  CREATININE: 0.21 mg/dL
  GLUCOSE: 128 mg/dL
  LACTATE DEHYDROGENASE: 169 u/L
  LIPASE: 9.67 u/L
  PHOSPHORUS: 10.3 mg/dL
  POTASSIUM: 5.89 MEQ/L
  SODIUM: 144.27 MEQ/L
  TOTAL BILIRUBIN: 0.17 mg/dL
  TOTAL PROTEIN: 5.67 G/DL
  URIC ACID: 1.43 mg/dL
